Here are results for 21 molecules from paper PMC10886162, “Synthesis of Novel Artemisinin, Ciprofloxacin, and Norfloxacin Hybrids with Potent Antiplasmodial Activity” (Antibiotics, 2024).

The test system of data set [1] is CQ-resistant P. falciparum FcB1 strain. In words: In vitro growth inhibition of P. falciparum FcB1 ([3H]-hypoxanthine incorporation). It is filed as cell-based, Plasmodium falciparum. As to the method: (§1) The chloroquine-resistant FcB1/Colombia and Dd2/Indochina strains of Plasmodium falciparum were obtained from the Protist Collection of the National Museum of Natural History, Paris, France (n° MNHN-CEU-2016-224-PfFCB1 and MNHN-CEU-2016-222-PfDD2). The parasites were maintained in vitro on human erythrocytes in RPMI 1640 medium supplemented by 8% (v/v) heat-inactivated human serum, at 37 °C, under an atmosphere of 5% CO2. The human red blood cells and serum were provided by the Établissement Français du Sang under the C-CPSL-UNT approval no. 13/EFS/126. The in vitro drug susceptibility assays were measured by [^3H]-hypoxanthine incorporation, as previously described. The drug stock solutions were prepared in DMSO. Briefly, the assays were performed in 96-well plates. The compounds were diluted in the culture medium (100 μL per well). The parasite cultures (100 μL, 2% parasitaemia, and 1% final hematocrit) were then added to each well and incubated for 24 h at 37 °C prior to the addition of 0.5 μCi of [^3H]- hypoxanthine (GE Healthcare, Paris, France, 1 to 5 Ci·mmol/mL) per well. After a further incubation of 24 h, the plates were frozen and thawed. The cell lysates were then collected onto fiberglass filters and counted in a liquid scintillation spectrometer. The growth inhibition for each drug concentration was determined through a comparison of the radioactivity incorporated in the treated culture with that in the control culture maintained on the same plate. The drugs were first evaluated for a range of fixed concentrations of 50, 5, 0.5, 0.05, and 0.005 μg/mL. […] The IC50 value was obtained from the drug concentration–response curve, and the results were expressed in μM or nM as the mean values ± standard deviations determined from several independent experiments. Artesunate (46) was used as an antimalarial drug control.

The test system of data set [2] is CQ-resistant Dd2 strain of P. falciparum. As to the kind of experiment: In vitro growth inhibition of P. falciparum Dd2 ([3H]-hypoxanthine incorporation). In kind it is cell-based, Plasmodium falciparum. The note with it: for IC50: Plasmodium falciparum, CQ-resistant Dd2, mean +/− SD of at least three independent experiments. As to the method:
as §1

Data set [3] has as its system human primary fibroblasts AB943. In words: Cytotoxicity upon human primary fibroblasts AB943 (resazurin). It is filed as cell-based. The conditions noted are these: Fibroblast, 72 h, mean +/− SD of at least three independent experiments. As to the method:
A cellular cytotoxicity evaluation was performed upon human primary fibroblasts AB943, as previously described. The assays were realized in 96-well plates in DMEM + Glutamax without phenol red medium containing 25 mM HEPES, a pH of 7.3, and 10% of fetal calf serum under a 5% CO2 atmosphere, at 37 °C. After trypsin treatment, the AB943 cells were seeded at 2000 cells per well in 100 μL. After 24 h of incubation, drugs diluted in the culture medium were added (100 μL per well). The drug stock solutions were prepared in dimethyl sulfoxide (DMSO). The final DMSO concentration in the cultures remained below 1%. Control cultures were constituted of cultures treated with DMSO instead of the drug. The cytotoxicity assay was based on the conversion of a redo-sensitive dye (resazurin) to a fluorescent product via viable cells. After 72 h of incubation, the resazurin solution was added in each well at a final concentration of 45 μM. The fluorescence was measured at 530 nm excitation and 590 nm emission wavelengths after 4 h of incubation. The percentage of the inhibition of cell growth was calculated by comparing the fluorescence of cells maintained in the presence of the drug to that in the absence of the drug. The concentration causing 50% growth inhibition (IC50) was obtained from the drug concentration–response curve, and the results were expressed as the mean values ± standard deviations determined from several experiments.
(Resazurin is reduced to fluorescent resorufin, in cell work by metabolically active cells.)

Where [4] appears, read: Plasmodium falciparum, FCB1, CQ-resistant FcB1, IC50 determined from the compound tested at 50, 5, 0.5 µg/mL and 50 and 5 ng/mL in triplicate (footnote b).
[5] abbreviates: Plasmodium falciparum, FCB1, CQ-resistant FcB1, mean +/− standard deviation of independent experiments (at least four in Tables 1-2, at least three in Tables 3-4).
The mark [6] stands for this setting: Plasmodium falciparum, FCB1, Table 5, CPX or NRX fragments alone.
[7] abbreviates: CQ-resistant FcB1, IC50 determined from the compound tested at 50, 5, 0.5 µg/mL and 50 and 5 ng/mL in triplicate (footnote b).

As for `O=C(O)c1cn(C2CC2)c2cc(N3CCNCC3)c(F)cc2c1=O` [CPX, ciprofloxacin], the IC50 – broadly, the concentration that gives 50% inhibition – in data set [1] (setting [4]) came to 54.1 µM.

As to `C[C@@H]1CCC2[C@@H](C)[C@@H](CCC(=O)N3CCN(c4cc5c(cc4F)c(=O)c(C(=O)O)cn5C4CC4)CC3)O[C@@H]3O[C@@]4(C)CCC1[C@@]23OO4` (stereo partly drawn) [Compound 13, 1-cyclopropyl-6-fluoro-4-oxo-7-(4-(3-((3R,6R,9R,10R,12R,12aR)-3,6,9-trimethyldecahydro-12H-3,12-epoxy[1,2]dioxepino[4,3-i]isochromen-10-yl)propanoyl)piperazin-1-yl)-1,4-dihydroquinoline-3-carboxylic acid], the melting point (usually the temperature, or range, at which the solid turns liquid) is 136 to 137 °C. Further, the IC50 in data set [1] (setting [4]) came out at 2.91 µM.

For `CCOC(=O)c1cn(C2CC2)c2cc(N3CCN(C(=O)C[C@H]4O[C@@H]5O[C@@]6(C)CCC7[C@H](C)CCC([C@H]4C)[C@]75OO6)CC3)c(F)cc2c1=O` (stereo partly drawn) [Compound 14, Ethyl 1-cyclopropyl-6-fluoro-4-oxo-7-(4-(2-((3R,6R,9R,10R,12R,12aR)-3,6,9-trimethyldecahydro-12H-3,12-epoxy[1,2]dioxepino[4,3-i]isochromen-10-yl)acetyl)piperazin-1-yl)-1,4-dihydroquinoline-3-carboxylate], the melting point is 142 to 143 °C. Besides, the IC50 in data set [1] (setting [4]) was 0.121 µM.

As for `CCOC(=O)c1cn(C2CC2)c2cc(N3CCN(C(=O)CC[C@H]4O[C@@H]5O[C@@]6(C)CCC7[C@H](C)CCC([C@H]4C)[C@]75OO6)CC3)c(F)cc2c1=O` (stereo partly drawn) [Compound 15, Ethyl 1-cyclopropyl-6-fluoro-4-oxo-7-(4-(3-((3R,6R,9R,10R,12R,12aR)-3,6,9-trimethyldecahydro-12H-3,12-epoxy[1,2]dioxepino[4,3-i]isochromen-10-yl)propanoyl)piperazin-1-yl)-1,4-dihydroquinoline-3-carboxylate], the melting point lay within 110.4 to 111.5 °C. Further, in data set [1] (setting [4]), the IC50 turned out to be 1.47 µM.

`CCCCOC(=O)c1cn(C2CC2)c2cc(N3CCN(C(=O)CC[C@H]4O[C@@H]5O[C@@]6(C)CCC7[C@H](C)CCC([C@H]4C)[C@]75OO6)CC3)c(F)cc2c1=O` (stereo partly drawn) [Compound 17, Butyl 1-cyclopropyl-6-fluoro-4-oxo-7-(4-(3-((3R,6R,9R,10R,12R,12aR)-3,6,9-trimethyldecahydro-12H-3,12-epoxy[1,2]dioxepino[4,3-i]isochromen-10-yl)propanoyl)piperazin-1-yl)-1,4-dihydroquinoline-3-carboxylate]: the 50% inhibitory concentration (IC50) in data set [1] (setting [4]) came out at 0.362 µM.

`CCn1cc(C(=O)N2CCN(c3ccnc4cc(Cl)ccc34)CC2)c(=O)c2cc(F)c(N3CCN(C(=O)C[C@H]4O[C@@H]5O[C@@]6(C)CCC7[C@H](C)CCC([C@H]4C)[C@]75OO6)CC3)cc21` (stereo partly drawn) [Compound 27, 3-(4-(7-chloroquinolin-4-yl)piperazine-1-carbonyl)-1-ethyl-6-fluoro-7-(4-(2-((3R,6R,9R,10R,12R,12aR)-3,6,9-trimethyldecahydro-12H-3,12-epoxy[1,2]dioxepino[4,3-i]isochromen-10-yl)acetyl)piperazin-1-yl)quinolin-4(1H)-one]: the melting point fell in the range of 173.6 to 174.5 °C. The IC50 in data set [2] came out at 0.0285 µM. For the same molecule, in data set [1] (setting [5]), the IC50 was 0.0066 µM.

`CCOC(=O)c1cn(C2CC2)c2cc(N3CCN(C(c4ccccc4)(c4ccccc4)c4ccccc4)CC3)c(F)cc2c1=O` [Compound 32, Ethyl 1-cyclopropyl-6-fluoro-4-oxo-7-(4-tritylpiperazin-1-yl)-1,4-dihydroquinoline-3-carboxylate]: the IC50 in data set [1] (setting [4]) worked out at 41.9 µM.

Consider `CCCCOC(=O)c1cn(C2CC2)c2cc(N3CCN(C(c4ccccc4)(c4ccccc4)c4ccccc4)CC3)c(F)cc2c1=O` [Compound 33, Butyl 1-cyclopropyl-6-fluoro-4-oxo-7-(4-tritylpiperazin-1-yl)-1,4-dihydroquinoline-3-carboxylate], for which, in data set [1] (setting [4]), the IC50 amounted to 3.9 µM.

Consider `CCOC(=O)c1cn(CC)c2cc(N3CCN(C(c4ccccc4)(c4ccccc4)c4ccccc4)CC3)c(F)cc2c1=O` [Compound 34, Ethyl 1-ethyl-6-fluoro-4-oxo-7-(4-tritylpiperazin-1-yl)-1,4-dihydroquinoline-3-carboxylate], for which the IC50 in data set [1] (setting [4]) was determined as 84.8 µM.

Take `CCCCOC(=O)c1cn(CC)c2cc(N3CCN(C(c4ccccc4)(c4ccccc4)c4ccccc4)CC3)c(F)cc2c1=O` [Compound 35, Butyl 1-ethyl-6-fluoro-4-oxo-7-(4-tritylpiperazin-1-yl)-1,4-dihydroquinoline-3-carboxylate]: the IC50 in data set [1] (setting [4]) turned out to be 26.2 µM.

Consider `O=C(c1cn(C2CC2)c2cc(N3CCN(C(c4ccccc4)(c4ccccc4)c4ccccc4)CC3)c(F)cc2c1=O)N1CCN(c2ccnc3cc(Cl)ccc23)CC1` [Compound 36, 3-(4-(7-chloroquinolin-4-yl)piperazine-1-carbonyl)-1-cyclopropyl-6-fluoro-7-(4-tritylpiperazin-1-yl)quinolin-4(1H)-one], for which the IC50 in data set [1] (setting [4]) amounted to 26.5 µM.

For the molecule `CCn1cc(C(=O)N2CCN(c3ccnc4cc(Cl)ccc34)CC2)c(=O)c2cc(F)c(N3CCN(C(c4ccccc4)(c4ccccc4)c4ccccc4)CC3)cc21` [Compound 37, 3-(4-(7-chloroquinolin-4-yl)piperazine-1-carbonyl)-1-ethyl-6-fluoro-7-(4-tritylpiperazin-1-yl)quinolin-4(1H)-one], the results for the IC50 in data set [2] and in data set [1] (setting [5]) were 0.307 µM and 0.184 µM, respectively.

Regarding `CCOC(=O)c1cn(C2CC2)c2cc(N3CCNCC3)c(F)cc2c1=O` [Compound 38], the IC50 in data set [1] (setting [4]) is 53.6 µM.

As to `CCCCOC(=O)c1cn(C2CC2)c2cc(N3CCNCC3)c(F)cc2c1=O` [Compound 39], the values for the IC50 in data set [1] (setting [4]) and in data set [1] (setting [6]) were 13.6 µM and 7 µM, respectively.

Consider `CCOC(=O)c1cn(CC)c2cc(N3CCNCC3)c(F)cc2c1=O` [Compound 40], for which the IC50 was determined as 19.7 µM in data set [1] (setting [4]) and 45.7 µM in data set [1] (setting [6]).

For the molecule `CCCCOC(=O)c1cn(CC)c2cc(N3CCNCC3)c(F)cc2c1=O` [Compound 41], the IC50 came to 13.9 µM in data set [1] (setting [4]) and 8.6 µM in data set [1] (setting [6]).

On to `O=C(c1cn(C2CC2)c2cc(N3CCNCC3)c(F)cc2c1=O)N1CCN(c2ccnc3cc(Cl)ccc23)CC1` [Compound 42], for which the IC50 in data set [1] (setting [7]) and in data set [1] (setting [4]) was 0.36 µM each time.

As to `CCn1cc(C(=O)N2CCN(c3ccnc4cc(Cl)ccc34)CC2)c(=O)c2cc(F)c(N3CCNCC3)cc21` [Compound 43], the IC50 was found to be 12.7 µM in data set [3], 0.483 µM in data set [2] and 0.476 µM in data set [1] (setting [5]). In data set [2] (ratio of cytotoxicity IC50 to antiplasmodial IC50 (Dd2)), the “Selectivity Index (IC50 AB943/IC50 Dd2)” value is listed as 26. For the same molecule, in data set [1] (ratio of cytotoxicity IC50 to antiplasmodial IC50 (FcB1)), the “Selectivity Index (IC50 AB943/IC50 FcB1)” value is reported as 27.

`CC1CCC2C(C)C(CC(=O)O)OC3OC4(C)CCC1C32OO4` (stereo not shown) [Compound 44, reference compound]: the half-inhibitory concentration (IC50) in data set [1] (setting [7]) and in data set [1] (setting [4]) was 0.401 µM in each case.

In the case of `CC1CCC2C(C)C(CCC(=O)O)OC3OC4(C)CCC1C32OO4` (stereo not shown) [Compound 45, reference compound], the IC50 in data set [1] (setting [7]) and in data set [1] (setting [4]) was 0.264 µM in each case.

Regarding `CCn1cc(C(=O)O)c(=O)c2cc(F)c(N3CCNCC3)cc21` [NRX, norfloxacin], the IC50 in data set [1] (setting [4]) was 81.4 µM.
